Experimental data: US20120245184A1 (Aderans Research Institute, Inc., priority 2006, published 2012)
Where a name gives a salt, the structure may show the parent alone.

Assays:
sonic hedgehog pathway [1] = assay: Hedgehog reporter assay (gli-luciferase) in S12 cells; type: cell-based; details: S12 mouse embryonic mesenchymal cells
Text: (§1) Mouse (TM3: mouse Leydig cells; S12: mouse embryonic mesenchymal cells) and human (Daoy: human medulloblastoma cell; HepM: human embryonic palatal mesenchymal cell) cell lines are used to screen small molecules for their ability to modulate the activity of the sonic hedgehog pathway (Table 1, Table 2, and Table 3). Stable hedgehog pathway reporter cell lines are established by specific antibiotic selection following transfection of a reporter plasmid containing a luciferase gene located directly downstream from the gli promoter. Consequently, any observable changes in cellular luciferase activity may be attributed to changes in sonic hedgehog pathway activity in mouse and human cells, respectively, since gli is the major by-product of this pathway. To calculate activity, we generate an eleven point dose curve for each compound using 1:3 dilutions in 96 well assay plates. Each plate tested also contains low and high control to establish maximal pathway activation so to establish/compare a percentage activation of each tested compound (AMAX) on respective plates. Also we calculate EC50 values, or a concentration where the pathway will be exactly 50% activated, for each tested compound to determine potency. In these cell lines, compounds that register >20% AMAX values are considered active.
(§2) Stable hedgehog pathway reporter cell lines are established following specific antibiotic selection following transfection of a reporter plasmid
(§3) In short, typically cells are plated in MicroTiter-plates at 10,000-20,000 cells per well, in growth media (containing 10%-20% FBS). After 48-72 hrs (HGL and DGL respectively) the media in the assay plates is switched to low-serum containing media (0.5% FBS). At that time compounds are added (at 1-5 μM) to the assay plates, in the presence or absence of hedgehog protein (octyl-modified version; 1-5 ng/ml). After another 24 hrs of incubation, the media from the assay plates is discarded and replaced with luciferase assay-mix. Subsequently, plates are incubated at RT for ˜15-30 mins and then read in a luminometer. [note: addition of the Hedgehog protein, although not critical, will sensitize the assay allowing the identification of weak actives].

sonic hedgehog pathway [2] = assay: Human hedgehog reporter assay Daoy-GliLuc (DGL); type: cell-based
Text: as §1, with “plates.” for “plates. Also we calculate EC50 values, or a concentration where the pathway will be exactly 50% activated, for each tested compound to determine potency. In these cell lines, compounds that register >20% AMAX values are considered active.”
as §2, §3

[3] = Daoy human medulloblastoma cells, gli-luciferase reporter, read-out: Human Daoy (Gli-Luc) Avg. EC50
[4] = Homo sapiens, Daoy, read-out: Human Daoy (Gli-Luc) Avg. EC50 (nM)
[5] = Daoy human medulloblastoma cells, gli-luciferase reporter, read-out: Daoy Avg. EC50

Structure (SMILES)	EC50 (sonic hedgehog pathway [2]; [3])	EC50 (sonic hedgehog pathway [2]; [5])	EC50 (sonic hedgehog pathway [1]; read-out: Mouse S12 Avg. EC50)	EC50 (sonic hedgehog pathway [2]; [4])	EC50 (sonic hedgehog pathway [1]; read-out: S12 Avg. EC50)
CNC1CCC(N(Cc2cc(-c3cc[n+]([O-])cc3)ccc2OC)C(=O)c2sc3c(F)ccc(F)c3c2Cl)CC1 (centres unmarked) [Compound 374, 4-(3-((3-chloro-4,7-difluoro-N-((1s,4s)-4-(methylamino)cyclohexyl)benzo[b]thiophene-2-carboxamido)methyl)-4-methoxyphenyl)pyridine 1-oxide]	< 50 nM		< 50 nM		
CN[C@H]1CC[C@H](N(Cc2cc(-c3cccnc3F)ccc2OC)C(=O)c2sc3c(F)ccc(F)c3c2Cl)CC1 [Compound 378, 3-Chloro-4,7-difluoro-benzo[b]thiophene-2-carboxylic acid[5-(2-fluoro-pyridin-3-yl)-2-methoxy-benzyl]-(4-methylamino-cyclohexyl)-amide]	< 50 nM		< 50 nM		
CN[C@H]1CC[C@H](N(Cc2cc(-c3ccc(F)nc3)ccc2OC)C(=O)c2sc3c(F)ccc(F)c3c2Cl)CC1 [Compound 379, 3-Chloro-4,7-difluoro-benzo[b]thiophene-2-carboxylic acid[5-(6-fluoro-pyridin-3-yl)-2-methoxy-benzyl]-(4-methylamino-cyclohexyl)-amide]	< 50 nM		< 50 nM		
CN[C@H]1CC[C@H](N(Cc2cc(-c3cncc(F)c3)ccc2OC)C(=O)c2sc3c(F)ccc(F)c3c2Cl)CC1 [Compound 380, 3-Chloro-4,7-difluoro-benzo[b]thiophene-2-carboxylic acid[5-(5-fluoro-pyridin-3-yl)-2-methoxy-benzyl]-(4-methylamino-cyclohexyl)-amide]	< 50 nM		< 50 nM		
CN[C@H]1CC[C@H](N(Cc2cc(-c3cccnc3F)ccc2OC)C(=O)c2sc3cccc(F)c3c2Cl)CC1 [Compound 381]	< 50 nM		< 50 nM		
CN[C@H]1CC[C@H](N(Cc2cc(-c3ccc(F)nc3)ccc2OC)C(=O)c2sc3cccc(F)c3c2Cl)CC1 [Compound 382, 3-Chloro-4-fluoro-benzo[b]thiophene-2-carboxylic acid[5-(6-fluoro-pyridin-3-yl)-2-methoxy-benzyl]-(4-methylamino-cyclohexyl)-amide]	< 50 nM		< 50 nM		
CN[C@H]1CC[C@H](N(Cc2cc(-c3cncc(F)c3)ccc2OC)C(=O)c2sc3cccc(F)c3c2Cl)CC1 [Compound 383, 3-chloro-4-fluoro-N-(5-(5-fluoropyridin-3-yl)-2-methoxybenzyl)-N-((1s,4s)-4-(methylamino)cyclohexyl)benzo[b]thiophene-2-carboxamide]	< 50 nM		< 50 nM		
CNC1CCC(N(Cc2cc(-c3ccnc(F)c3)ccc2OC)C(=O)c2sc3c(F)ccc(F)c3c2Cl)CC1 (centres unmarked) [Compound 384, 3-Chloro-4,7-difluoro-benzo[b]thiophene-2-carboxylic acid[5-(2-fluoro-pyridin-4-yl)-2-methoxy-benzyl]-(4-methylamino-cyclohexyl)-amide]	< 50 nM		< 50 nM		
CNC1CCC(N(Cc2cc(-c3ccnc(F)c3)ccc2OC)C(=O)c2sc3cccc(F)c3c2Cl)CC1 (centres unmarked) [Compound 385, 3-Chloro-4-fluoro-benzo[b]thiophene-2-carboxylic acid[5-(2-fluoro-pyridin-4-yl)-2-methoxy-benzyl]-(4-methylamino-cyclohexyl)-amide]	< 50 nM		< 50 nM		
CNC1CCC(N(Cc2cc(-c3ccc(S(N)(=O)=O)cc3)ccc2OC)C(=O)c2sc3c(F)ccc(F)c3c2Cl)CC1 (centres unmarked) [Compound 388, 3-Chloro-4,7-difluoro-benzo[b]thiophene-2-carboxylic acid(4-methoxy-4′-sulfamoyl-biphenyl-3-ylmethyl)-(4-methylamino-cyclohexyl)-amide hydrochloride]	< 50 nM		< 50 nM		
CCS(=O)(=O)c1ccc(-c2ccc(OC)c(CN(C(=O)c3sc4c(F)ccc(F)c4c3Cl)C3CCC(NC)CC3)c2)cc1 (centres unmarked) [Compound 389, 3-Chloro-4,7-difluoro-benzo[b]thiophene-2-carboxylic acid (4′-ethanesulfonyl-4-methoxy-biphenyl-3-ylmethyl)-(4-methylamino-cyclohexyl)-amide hydrochloride]			< 50 nM	< 50 nM	
COc1ccc(-c2ccc(S(C)(=O)=O)cc2)cc1CN(C(=O)c1sc2c(F)ccc(F)c2c1Cl)C1CCC(N)CC1 (centres unmarked) [Compound 390, 3-Chloro-4,7-difluoro-benzo[b]thiophene-2-carboxylic acid (4-amino-cyclohexyl)-(4′-methanesulfonyl-4-methoxy-biphenyl-3-ylmethyl)-amide hydrochloride]			< 50 nM	< 50 nM	
CNC1CCC(N(Cc2cc(-c3ccc(S(=O)(=O)N(C)C)cc3)ccc2OC)C(=O)c2sc3c(F)ccc(F)c3c2Cl)CC1 (centres unmarked) [Compound 391, 3-Chloro-4,7-difluoro-benzo[b]thiophene-2-carboxylic acid (4′-dimethylsulfamoyl-4-methoxy-biphenyl-3-ylmethyl)-(4-methylamino-cyclohexyl)-amide trifluoroacetate]			< 50 nM	< 50 nM	
C=Cc1ccc(-c2ccc(OC)c(CN(C(=O)c3sc4c(F)ccc(F)c4c3Cl)[C@H]3CC[C@H](N)CC3)c2)cc1 [Compound 393, N-((1r,4r)-4-aminocyclohexyl)-3-chloro-4,7-difluoro-N-((4-methoxy-4′-vinylbiphenyl-3-yl)methyl)benzo[b]thiophene-2-carboxamide]	50 to 250 nM		50 to 250 nM		

The next lines start with results.

EC50 (sonic hedgehog pathway [2]; [3])	EC50 (sonic hedgehog pathway [2]; [5])	Structure (SMILES)	EC50 (sonic hedgehog pathway [1]; read-out: Mouse S12 Avg. EC50)	EC50 (sonic hedgehog pathway [2]; [4])	EC50 (sonic hedgehog pathway [1]; read-out: S12 Avg. EC50)
< 50 nM		CN[C@H]1CC[C@@H](N(Cc2cc(-c3ccncc3F)ccc2OC)C(=O)c2sc3c(F)ccc(F)c3c2Cl)CC1 [Compound 386, 3-Chloro-4,7-difluoro-benzo[b]thiophene-2-carboxylic acid[5-(3-fluoro-pyridin-4-yl)-2-methoxy-benzyl]-(4-methylamino-cyclohexyl)-amide]	< 50 nM		
< 50 nM		CNC1CCC(N(Cc2cc(-c3ccncc3F)ccc2OC)C(=O)c2sc3cccc(F)c3c2Cl)CC1 (centres unmarked) [Compound 387, 3-Chloro-4-fluoro-benzo[b]thiophene-2-carboxylic acid[5-(3-fluoro-pyridin-4-yl)-2-methoxy-benzyl]-(4-methylamino-cyclohexyl)-amide]	< 50 nM		
< 50 nM		CNC1CCC(N(Cc2cc(-c3ccncc3)ccc2C)C(=O)c2sc3c(F)ccc(F)c3c2Cl)CC1 (centres unmarked) [Compound 392, 3-Chloro-4,7-difluoro-benzo[b]thiophene-2-carboxylic acid (4-methylamino-cyclohexyl)-(2-methyl-5-pyridin-4-yl-benzyl)-amide bis(trifluoroacetate)]	< 50 nM		
< 50 nM		CN[C@H]1CC[C@@H](N(Cc2cc(OC)cc(-c3ccncc3)c2)C(=O)C2=C(Cl)c3c(F)ccc(F)c3C2)CC1 [Compound 394, 3-Chloro-4,7-difluoro-benzo[b]thiophene-2-carboxylic acid(3-methoxy-5-pyridin-4-yl-benzyl)-(4-methylamino-cyclohexyl)-amide bis(trifluoroacetate)]	< 50 nM		
50 to 250 nM		CCc1ccc(-c2ccncc2)cc1CN(C(=O)C1=C(Cl)c2c(F)ccc(F)c2C1)[C@H]1CC[C@@H](NC)CC1 [Compound 395, 3-Chloro-4,7-difluoro-benzo[b]thiophene-2-carboxylic acid(2-ethyl-5-pyridin-4-yl-benzyl)-(4-methylamino-cyclohexyl)-amide dihydrochloride]	50 to 250 nM		
	250 to 1000 nM	CNC1CCC(N(Cc2cc(-c3ccccc3SC)ccc2OC)C(=O)c2sc3c(F)ccc(F)c3c2Cl)CC1 (centres unmarked) [Compound 408, 3-Chloro-4,7-difluoro-benzo[b]thiophene-2-carboxylic acid (4-methoxy-2′-methylsulfanyl-biphenyl-3-ylmethyl)-(4-methylamino-cyclohexyl)-amide hydrochloride]			250 to 1000 nM
	< 50 nM	COc1ccc(-c2cccnc2)cc1CN(C(=O)c1sc2cccc(F)c2c1Cl)[C@H]1CC[C@H](N)CC1 [Compound 410, 3-Chloro-4-fluoro-benzo[b]thiophene-2-carboxylic acid(4-amino-cyclohexyl)-(2-methoxy-5-pyridin-3-yl-benzyl)-amide]			< 50 nM
	50 to 250 nM	COc1ccc(-c2cncc(F)c2)cc1CN(C(=O)c1sc2c(F)ccc(F)c2c1Cl)[C@H]1CC[C@H](N)CC1 [Compound 416]			< 50 nM
